Read-outs that look alike come from different tables or passages of the source.
Assays:
[1] = cited from earlier work
OATP1B3 [2] = assay: Immunoblot of total OATP1B3 protein in HEK293-OATP1B3 cells; assay type: cell-based, human; conditions: 10 μM, 1 h
[3] = test system: HEK293-OATP1B1 and -1B3 cells; conditions: 1 h treatment; rifampicin up to 25 μM, dasatinib up to 20 μM
[4] = cited from earlier work; remark: listed apart in the source
OATP1B1 [5] = conditions: co-incubation with 10 μM; cited from earlier work
GFP-OATP1B3 [6] = assay type: cell-based, human
OATP1B1 [7] = molecular target: T1, OATP1B1 (Homo sapiens, UniProt Q9Y6L6); assay: cell-based; conditions: [3H]-E217βG 1 μM, 2 min, HEK293-OATP1B1
T1 sequence (Q9Y6L6 1-691): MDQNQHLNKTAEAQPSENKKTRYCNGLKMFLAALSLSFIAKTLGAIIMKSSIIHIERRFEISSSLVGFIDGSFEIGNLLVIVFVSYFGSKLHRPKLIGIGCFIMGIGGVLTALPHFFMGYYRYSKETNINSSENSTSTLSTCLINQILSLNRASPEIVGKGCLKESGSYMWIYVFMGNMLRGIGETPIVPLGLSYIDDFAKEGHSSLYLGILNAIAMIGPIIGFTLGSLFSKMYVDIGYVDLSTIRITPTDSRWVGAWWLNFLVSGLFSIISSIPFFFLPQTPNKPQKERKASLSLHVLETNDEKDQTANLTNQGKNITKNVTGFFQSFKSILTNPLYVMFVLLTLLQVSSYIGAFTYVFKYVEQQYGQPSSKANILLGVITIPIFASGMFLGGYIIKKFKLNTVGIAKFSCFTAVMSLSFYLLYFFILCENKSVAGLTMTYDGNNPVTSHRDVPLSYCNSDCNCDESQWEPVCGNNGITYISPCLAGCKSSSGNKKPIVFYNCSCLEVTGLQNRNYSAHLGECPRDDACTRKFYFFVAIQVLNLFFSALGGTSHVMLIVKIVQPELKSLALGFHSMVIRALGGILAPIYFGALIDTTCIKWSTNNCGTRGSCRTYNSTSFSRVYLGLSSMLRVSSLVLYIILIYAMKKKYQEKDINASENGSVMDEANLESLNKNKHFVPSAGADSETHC

[8] = co-administration of dasatinib with simvastatin; cited from earlier work
OATP1B1 [9] = molecular target: T1, OATP1B1
OATP1B1 [10] = assay: Immunoblot of total OATP1B1 protein in HEK293-OATP1B1 cells; assay type: cell-based, human; conditions: 10 μM, 1 h
GFP-OATP1B1 [11] = assay type: cell-based, human
GFP-OATP1B1 [12] = molecular target: T2, GFP-OATP1B1 (Homo sapiens, UniProt Q9Y6L6); assay: [3H]-E217βG accumulation in HEK293-GFP-OATP1B1 cells
T2 sequence (Q9Y6L6 1-691): T1 sequence (Q9Y6L6 1-691)

OATP1B3 [13] = molecular target: T3, OATP1B3 (Homo sapiens, UniProt Q9NPD5)
T3 sequence (Q9NPD5 1-702): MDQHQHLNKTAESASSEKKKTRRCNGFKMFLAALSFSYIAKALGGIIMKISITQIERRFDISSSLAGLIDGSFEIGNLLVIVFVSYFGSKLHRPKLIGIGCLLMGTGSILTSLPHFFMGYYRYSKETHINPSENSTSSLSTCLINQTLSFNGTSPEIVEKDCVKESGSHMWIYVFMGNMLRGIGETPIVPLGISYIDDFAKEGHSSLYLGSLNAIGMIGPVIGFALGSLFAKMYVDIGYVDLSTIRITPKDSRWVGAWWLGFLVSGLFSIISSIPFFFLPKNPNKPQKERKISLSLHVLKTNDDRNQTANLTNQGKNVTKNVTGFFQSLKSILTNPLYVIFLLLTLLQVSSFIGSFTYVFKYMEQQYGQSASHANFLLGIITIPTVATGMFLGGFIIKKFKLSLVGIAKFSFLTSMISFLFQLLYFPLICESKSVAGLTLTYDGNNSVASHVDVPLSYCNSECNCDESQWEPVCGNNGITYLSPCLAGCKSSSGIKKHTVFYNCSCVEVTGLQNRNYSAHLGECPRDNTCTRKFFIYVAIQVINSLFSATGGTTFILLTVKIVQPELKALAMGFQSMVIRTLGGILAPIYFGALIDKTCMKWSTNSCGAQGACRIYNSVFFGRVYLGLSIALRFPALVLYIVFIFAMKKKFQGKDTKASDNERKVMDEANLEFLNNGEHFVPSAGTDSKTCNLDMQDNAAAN

GFP-OATP1B3 [14] = molecular target: T4, GFP-OATP1B3 (Homo sapiens, UniProt Q9NPD5); assay: [3H]-E217βG accumulation in HEK293-GFP-OATP1B3 cells
T4 sequence (Q9NPD5 1-702): T3 sequence (Q9NPD5 1-702)

OATP1B3 [15] = molecular target: T3, OATP1B3; assay: cell-based; conditions: [3H]-E217βG 1 μM, 2 min, HEK293-OATP1B3
[16] = Estimated maximum unbound inhibitor concentration at the inlet to the liver; design: species or system human; conditions: Supplemental Table S2
OATP1B1 [17] = molecular target: T1, OATP1B1; assay: OATP1B1-mediated [3H]-E1S accumulation; assay type: cell-based; conditions: 1 μM, 30 min or 1 h
OATP1B1 [18] = molecular target: T1, OATP1B1; assay: OATP1B1-mediated [3H]-pitavastatin accumulation; assay type: cell-based; conditions: 10 μM, 1 h pre-incubation
OATP1B1 [19] = conditions: 1–25 μM; cited from earlier work
[20] = 20 μM, up to at least 1 h (data not shown)
[21] = IC50, co-incubation, without pretreatment
[22] = IC50, pre+co-incubation (1 h pretreatment)
[23] = substrate kinetics, vehicle control pretreatment, mean ± SD, n=3
[24] = unlabeled E217βG 1–30 μM, 0.5 and 1 h

Cc1nc(Nc2ncc(C(=O)Nc3c(C)cccc3Cl)s2)cc(N2CCN(CCO)CC2)n1 [Dasatinib]
pKa1 [1]: 6.8
pKa2 [1]: 10.8
Log PO:W ([1]; neutral species octanol:buffer partition coefficient): 1.8
Total protein level of OATP1B3 vs vehicle control (OATP1B3 [2]): similar
LDH cytotoxicity [3]: negligible toxicity
ka ([4]; first-order absorption rate constant): 6 h⁻¹
fa ([4]; fraction available for absorption from dosage form, meta-analysis): 0.781
Vss ([4]; from allometric scaling): 4.2 L/kg
CLPO ([4]; observed value (CV% 106.5)): 449.4 L/h
CLR ([4]; observed value): 0.4 L/h
Decrease of OATP1B1-mediated [3H]-E217βG transport (OATP1B1 [5]): ~ 70%
Plasma membrane localization of GFP-OATP1B3 (GFP-OATP1B3 [6]; [20]): did not cause an obvious change
IC50 (OATP1B1 [7]; [21]): 4810 ± 1700 nM
IC50 (OATP1B1 [7]; [22]): 2330 ± 860 nM
Increase of AUC of simvastatin [8]: 20%
Increase of AUC of simvastatin acid [8]: 27%
Effect of pretreatment on OATP1B1-mediated [3H]-E217βG accumulation (OATP1B1 [9]; 5 - 20 μM for 0.5 and 1 h): significantly decreased
Total protein level of OATP1B1 vs vehicle control (OATP1B1 [10]): similar
Plasma membrane localization of GFP-OATP1B1 (GFP-OATP1B1 [11]; [20]): did not cause an obvious change

C[C@]12CC[C@@H]3c4ccc(O)cc4CC[C@H]3[C@@H]1CC[C@@H]2O[C@@H]1O[C@H](C(=O)O)[C@@H](O)[C@H](O)[C@H]1O [E217βG, estradiol 17β-D-glucuronide]
[3H]-E217βG accumulation vs HEK293-Mock cells (GFP-OATP1B1 [12]; 1 μM, 2 min, HEK293-GFP-OATP1B1 (data not shown)): 390 fold
Vmax of E217βG transport mediated by OATP1B3 (OATP1B3 [13]; [23]): 15.8 ± 1.6 pmol/mg protein/min
Effect of pretreatment on OATP1B3-mediated transport of [3H]-E217βG (OATP1B3 [13]; [24]): only slightly decreases or has no effect
[3H]-E217βG accumulation vs HEK293-Mock cells (GFP-OATP1B3 [14]; 1 μM, 2 min, HEK293-GFP-OATP1B3 (data not shown)): ~ 34 fold
Vmax of E217βG transport mediated by OATP1B1 (OATP1B1 [9]; [23]): 55.2 ± 1.6 pmol/mg protein/min
Effect of pretreatment on OATP1B1-mediated transport of [3H]-E217βG (OATP1B1 [9]; [24]): only slightly decreases or has no effect

CO[C@H]1/C=C/O[C@@]2(C)Oc3c(C)c(O)c4c(O)c(c(/C=N/N5CCN(C)CC5)c(O)c4c3C2=O)NC(=O)/C(C)=C\C=C\[C@H](C)[C@H](O)[C@@H](C)[C@@H](O)[C@@H](C)[C@H](OC(C)=O)[C@@H]1C [Rifampicin]
IC50 (OATP1B3 [15]; [21]): 260 ± 30 nM
IC50 (OATP1B3 [15]; [22]): 100 ± 10 nM
Total protein level of OATP1B3 vs vehicle control (OATP1B3 [2]): similar
Maximum possible unbound concentration at the inlet to the liver (Iu,in,max) [16]: 10.7 µM
Effect of pretreatment on OATP1B1-mediated [3H]-E1S transport (OATP1B1 [17]): did not affect
Effect of pre-incubation on OATP1B1-mediated [3H]-pitavastatin accumulation (OATP1B1 [18]): significantly decreased
Effect of pretreatment on [3H]-E217βG accumulation in HEK293-GFP-OATP1B1 (GFP-OATP1B1 [12]; 10 μM for 0.5 and 1 h): significantly decreased
Plasma membrane localization of GFP-OATP1B3 (GFP-OATP1B3 [6]; 10 μM, 1–61 min): primarily localized at the plasma membrane
IC50 (OATP1B1 [7]; [21]): 740 ± 80 nM
IC50 (OATP1B1 [7]; [22]): 240 ± 30 nM
Effect of pre-incubation on OATP1B1-mediated [3H]-E1S transport (OATP1B1 [19]): did not significantly affect
Effect of pretreatment on [3H]-E217βG accumulation in HEK293-GFP-OATP1B3 (GFP-OATP1B3 [14]; 10 μM for 0.5 and 1 h): significantly decreased
Effect of pre-incubation on OATP1B1-mediated [3H]-E217βG transport (OATP1B1 [9]; 1 – 25 μM for 0.5 h and 0.5 – 25 μM for 1 h, washed): significantly decreased
Change of Km of OATP1B1-mediated E217βG transport vs control (OATP1B1 [9]; pretreatment 10 μM, 1 h): ~ 1.5 fold
Decrease of Vmax of OATP1B1-mediated E217βG transport vs control (OATP1B1 [9]; pretreatment 10 μM, 1 h): ~ 3.5 fold
Total protein level of OATP1B1 vs vehicle control (OATP1B1 [10]): similar
Plasma membrane localization of GFP-OATP1B1 (GFP-OATP1B1 [11]; 10 μM, 1–61 min): primarily localized at the plasma membrane

Reference: publication PMC5511785 (Journal of pharmaceutical sciences, 2017)
